From PubChem BioAssay (NCI) come the findings set out here.

Some test systems named below: DMS 273 small cell lung; COLO 205 colon; OVCAR-4 ovarian; NCI-H226 lung; SW-620 colon; IGROV1 ovarian; KM20L2 colon; XF 498 CNS; HOP-92 NSCLC; T-47D breast.
Holding throughout (experiment): NCI tumour cell line growth inhibition, 48 h

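Method: 48-hour compound exposure of cells in 96-well plates, five concentrations, linear interpolation of endpoints. At the GI50, growth is halved. TGI denotes the concentration required for complete inhibition of growth.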 A value given as a limit tells only on which side of the number the result lay.

With `COC(=O)CCC1CCc2c(OC)ccc(O)c2C1=O` (stereo not drawn), the TGI in the assay with DMS 273 small cell lung was over 100 µM; with COLO 205 colon it was over 100 µM; in the assay on OVCAR-4 ovarian, over 100 µM; in the assay with NCI-H226 lung, 84.1 µM; with SW-620 colon, over 100 µM; in the assay with IGROV1 ovarian it was over 100 µM.

Consider `COC(=O)CCC(NC(=S)N/N=C(\C)c1nccs1)C(=O)OC` (stereo not drawn), for which the TGI is 34.1 µM in the assay on COLO 205 colon; over 100 µM in the assay on KM20L2 colon; over 100 µM in the assay on OVCAR-4 ovarian; over 100 µM in the assay on NCI-H226 lung; over 100 µM with SW-620 colon; over 100 µM with XF 498 CNS. Moreover, the TGI in the assay on IGROV1 ovarian and with HOP-92 NSCLC was over 100 µM in each case.

`C1CCSCCCCSCCCCSCCCCSC1`: the TGI with COLO 205 colon, with T-47D breast, in the assay with OVCAR-4 ovarian, in the assay with NCI-H226 lung, with SW-620 colon and with IGROV1 ovarian was over 100 µM each time. The compound also had a TGI with HOP-92 NSCLC of over 100 µM.

Turning to `COc1ccc2c(c1)C(O)(C(F)(F)F)c1cc(C(=O)C(F)(F)F)c3ccccc3c1N2` (stereo not drawn), the TGI with DMS 273 small cell lung turned out to be 23.1 µM; in the assay on COLO 205 colon, 19.5 µM; with KM20L2 colon, 13.7 µM; in the assay with OVCAR-4 ovarian, 22.4 µM; in the assay on NCI-H226 lung, 28 µM; in the assay on SW-620 colon, 26.8 µM. Further, the TGI in the assay on IGROV1 ovarian amounted to 27.9 µM; with HOP-92 NSCLC, 29.6 µM.

For the compound `C=CCc1c2c(c(OC)c3ccoc13)C(=O)/C(=C/c1ccccc1OC)O2`, the GI50 with COLO 205 colon was 7.64 µM; with T-47D breast, 4.34 µM; in the assay with OVCAR-4 ovarian, 3.34 µM; in the assay on NCI-H226 lung, 3.22 µM; in the assay on SW-620 colon it was 4.24 µM; with IGROV1 ovarian, 5.27 µM. In addition, the GI50 in the assay with HOP-92 NSCLC was 2.07 µM. Moreover, the TGI in the assay on COLO 205 colon is 69.5 µM; in the assay with T-47D breast, over 100 µM; in the assay with OVCAR-4 ovarian, over 100 µM; with NCI-H226 lung it was 20.5 µM; with SW-620 colon, over 100 µM; in the assay on IGROV1 ovarian it was over 100 µM. Moreover, the TGI in the assay with HOP-92 NSCLC was 6.2 µM.

With `CN1CCN(CCc2cccc(C(=O)c3cnn(-c4ccc(F)cc4)c3N)c2)CC1`, the GI50 in the assay on COLO 205 colon, with T-47D breast, with OVCAR-4 ovarian, in the assay with NCI-H226 lung, in the assay on SW-620 colon and in the assay with IGROV1 ovarian was over 25 µM in each case. Besides, the GI50 with HOP-92 NSCLC is over 25 µM. The TGI with COLO 205 colon, in the assay on T-47D breast, in the assay on OVCAR-4 ovarian, in the assay with NCI-H226 lung, in the assay with SW-620 colon and in the assay on IGROV1 ovarian was over 25 µM in each case. In the assay on HOP-92 NSCLC, this compound gave a TGI of over 25 µM.

As to `CCCCCn1c(=N)n(CC(O)COc2cccc(C)c2)c2ccccc21` (stereo not drawn), the GI50 in the assay on COLO 205 colon was 1.93 µM; in the assay with T-47D breast it was 3.33 µM; in the assay on OVCAR-4 ovarian it was 3.67 µM; with NCI-H226 lung, 10.3 µM; in the assay with SW-620 colon, 4.26 µM; in the assay on IGROV1 ovarian, 4.45 µM. The GI50 with HOP-92 NSCLC was 2.74 µM. In addition, the TGI worked out at 3.62 µM with COLO 205 colon; 10.6 µM in the assay on T-47D breast; 17.6 µM in the assay on OVCAR-4 ovarian; 28 µM in the assay on NCI-H226 lung; 18.3 µM in the assay on SW-620 colon; 18 µM with IGROV1 ovarian. Also, the TGI in the assay on HOP-92 NSCLC amounted to 14.8 µM.

Consider `COc1cc(/C=C2\C(=O)N(C(=O)Cc3ccccc3)N=C2C)ccc1O`, for which the TGI in the assay on DMS 273 small cell lung, with COLO 205 colon, in the assay on OVCAR-4 ovarian, in the assay with NCI-H226 lung, with SW-620 colon and in the assay with XF 498 CNS was over 100 µM throughout.

`COc1cc(Cl)cc(-c2nn(C(=O)NCCN3CCOCC3)cc2-c2ccncc2)c1`: the GI50 was 3.16 µM with COLO 205 colon; 5.78 µM with T-47D breast; 12.6 µM in the assay on OVCAR-4 ovarian; 7.2 µM in the assay on NCI-H226 lung; 4.28 µM with SW-620 colon; 4.98 µM with IGROV1 ovarian. In addition, the GI50 with HOP-92 NSCLC is 4.35 µM. Besides, the TGI with COLO 205 colon is 11.2 µM; in the assay with T-47D breast, over 100 µM; in the assay on OVCAR-4 ovarian, over 100 µM; in the assay on NCI-H226 lung it was 48.9 µM; in the assay with SW-620 colon, 32.7 µM; in the assay on IGROV1 ovarian it was over 100 µM. For the same compound, in the assay with HOP-92 NSCLC, the TGI was 84.6 µM.

For `N#CC(C(=O)/C(=N/NC(=O)c1ccccc1O)C(C#N)c1ccc(Cl)cc1)c1ccc(Cl)cc1` (stereo not drawn), the TGI with COLO 205 colon turned out to be 86.5 µM; in the assay on KM20L2 colon it was 27.2 µM; in the assay on OVCAR-4 ovarian, 33.9 µM; in the assay with NCI-H226 lung it was 31.8 µM; in the assay with SW-620 colon, 29.1 µM; in the assay with XF 498 CNS it was 26.3 µM.

Turning to `COC(=O)[C@H](Cc1cn(C)cn1)NC(=O)[C@H](Cc1c[nH]c2ccccc12)NC(=O)Nc1cc(C(F)(F)F)cc(C(F)(F)F)c1`, the GI50 with COLO 205 colon, in the assay with T-47D breast, with OVCAR-4 ovarian, in the assay with NCI-H226 lung, in the assay with SW-620 colon and in the assay on IGROV1 ovarian was over 10 µM each time. Further, in the assay with HOP-92 NSCLC, the GI50 was over 10 µM. Further, the TGI with COLO 205 colon, in the assay with T-47D breast, with OVCAR-4 ovarian, in the assay with NCI-H226 lung, with SW-620 colon and in the assay with IGROV1 ovarian was over 10 µM each time. Besides, in the assay on HOP-92 NSCLC, the TGI is over 10 µM.

Take `Cc1ccc(C(=O)O/N=C2/CCC/C2=C\c2ccccc2)cc1`: the TGI in the assay with DMS 273 small cell lung, with COLO 205 colon, in the assay with KM20L2 colon, with OVCAR-4 ovarian, in the assay on NCI-H226 lung and in the assay with SW-620 colon was over 100 µM throughout. In addition, the TGI with IGROV1 ovarian and in the assay with HOP-92 NSCLC was over 100 µM throughout.

Consider `N#Cc1cnc2cc(OC[C@H](O)CO)c(NC(=O)CC3CSSC3)cc2c1Nc1ccc(OCc2cccc(F)c2)c(Cl)c1`, for which the GI50 in the assay on COLO 205 colon was 0.883 µM; with T-47D breast, 0.575 µM; in the assay with OVCAR-4 ovarian, 0.619 µM; in the assay with NCI-H226 lung it was 0.335 µM; in the assay with SW-620 colon, 0.698 µM; in the assay on IGROV1 ovarian, 0.446 µM. For the same compound, in the assay with HOP-92 NSCLC, the GI50 is 2.23 µM. Moreover, the TGI came to 1.81 µM in the assay with COLO 205 colon; 1.47 µM in the assay on T-47D breast; 1.57 µM in the assay with OVCAR-4 ovarian; 1.49 µM with NCI-H226 lung; 1.58 µM in the assay on SW-620 colon; 1.39 µM with IGROV1 ovarian. For the same compound, the TGI in the assay on HOP-92 NSCLC came to 8.04 µM.
